Experimental data as given in ChEMBL document CHEMBL1201862, “PubChem BioAssay data set” (2004).
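96-well plates; 48 h exposure; 5 concentrations. Endpoints by linear interpolation between flanking doses. Not reached: highest tested concentration assigned. Abbreviation: GI50, concentration required for 50% inhibition of growth.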 Activity calls are given as the source filed them. No stated cut-off is given here; in the data, active = GI50 up to about 1.1 µM and inactive = higher.

Tests used:
Assay in all cases: NCI anticancer screen, dose series, 48 h
786-0 = test system: 786-0
A498 = test system: A498
A549 = test system: A549
ACHN = test system: ACHN
BT-549 = test system: BT-549
CAKI-1 = test system: CAKI-1
CCRF-CEM = test system: CCRF-CEM
COLO 205 = test system: COLO 205
DU-145 = test system: DU-145
EKVX = test system: EKVX
HCC 2998 = test system: HCC 2998
HCT-116 = test system: HCT-116
HCT-15 = test system: HCT-15
HL-60 = test system: HL-60
HOP-62 = test system: HOP-62
HOP-92 = test system: HOP-92
HT-29 = test system: HT-29
Hs-578T = test system: Hs-578T
IGROV-1 = test system: IGROV-1
K562 = test system: K562
KM12 = test system: KM12
LOX IMVI = test system: LOX IMVI
M14 = test system: M14
MCF7 = test system: MCF7
MDA-MB-231 = test system: MDA-MB-231
MDA-MB-435 = test system: MDA-MB-435
MDA-N = test system: MDA-N
MOLT-4 = test system: MOLT-4
Malme-3M = test system: Malme-3M
NCI-H226 = test system: NCI-H226
NCI-H23 = test system: NCI-H23
NCI-H460 = test system: NCI-H460
NCI-H522 = test system: NCI-H522
NCI/ADR-RES = test system: NCI/ADR-RES
OVCAR-3 = test system: OVCAR-3
OVCAR-4 = test system: OVCAR-4
OVCAR-5 = test system: OVCAR-5
OVCAR-8 = test system: OVCAR-8
PC-3 = test system: PC-3
RPMI-8226 = test system: RPMI-8226
RXF 393 = test system: RXF 393
SF-268 = test system: SF-268
SF-295 = test system: SF-295
SF-539 = test system: SF-539
SK-MEL-28 = test system: SK-MEL-28
SK-MEL-2 = test system: SK-MEL-2
SK-MEL-5 = test system: SK-MEL-5
SK-OV-3 = test system: SK-OV-3
SN12C = test system: SN12C
SNB-19 = test system: SNB-19
SNB-75 = test system: SNB-75
SR = test system: SR
SW-620 = test system: SW-620
T47D = test system: T47D
TK-10 = test system: TK-10
U-251 = test system: U-251
UACC-257 = test system: UACC-257
UACC-62 = test system: UACC-62
UO-31 = test system: UO-31
DLD-1 = test system: DLD-1
DMS-114 = test system: DMS-114
DMS-273 = test system: DMS-273
HOP-18 = test system: HOP-18
KM-20L2 = test system: KM-20L2
M19-MEL = test system: M19-MEL
SNB-78 = test system: SNB-78

In the case of `CC(C)O/N=C/c1cc(NC(=S)OC(C)C)ccc1Cl`, the GI50 (786-0) is reported as 33.3 µM (inactive), the GI50 (A498) is reported as 44.7 µM (inactive) and the GI50 (A549) is reported as 35.4 µM (inactive). The GI50 (ACHN) was 35.2 µM (inactive), the GI50 (BT-549) was 55.5 µM (inactive) and the GI50 (CAKI-1) was 22.9 µM (inactive). For the same compound, the GI50 (CCRF-CEM) was 13.5 µM (inactive), the GI50 (COLO 205) was 56.8 µM (inactive) and the GI50 (DU-145) was > 65.5 µM (inactive). For the same compound, the GI50 (EKVX) was 19.1 µM (inactive), the GI50 (HCC 2998) was 45.2 µM (inactive) and the GI50 (HCT-116) was 23.3 µM (inactive). For the same compound, the GI50 (HCT-15) was 36.9 µM, the GI50 (HL-60) was 20.4 µM (inactive) and the GI50 (HOP-62) was 37.8 µM (inactive). The GI50 (HOP-92) was > 44.2 µM (inactive), the GI50 (HT-29) was 23.1 µM (inactive) and the GI50 (Hs-578T) was 30.1 µM (inactive). The GI50 (IGROV-1) was 28.2 µM (inactive), the GI50 (K562) was 29.4 µM (inactive) and the GI50 (KM12) was 50.9 µM (inactive). The GI50 (LOX IMVI) was 28.1 µM (inactive), the GI50 (M14) was 62.7 µM (inactive) and the GI50 (MCF7) was 23.5 µM (inactive). The GI50 (MDA-MB-231) was 19.1 µM (inactive), the GI50 (MDA-MB-435) was > 61.4 µM (inactive) and the GI50 (MDA-N) was > 69.5 µM (inactive). The GI50 (MOLT-4) was 15.8 µM (inactive), the GI50 (Malme-3M) was > 91.8 µM (inactive) and the GI50 (NCI-H226) was 28.8 µM (inactive). The GI50 (NCI-H23) was 43.9 µM (inactive), the GI50 (NCI-H460) was 42.3 µM (inactive) and the GI50 (NCI-H522) was 26 µM (inactive). For the same compound, the GI50 (NCI/ADR-RES) was 35.5 µM (inactive), the GI50 (OVCAR-3) was 32.5 µM (inactive) and the GI50 (OVCAR-4) was 31.7 µM (inactive). The GI50 (OVCAR-5) was 48.6 µM (inactive), the GI50 (OVCAR-8) was 36.9 µM (inactive) and the GI50 (PC-3) was 36.8 µM (inactive). The GI50 (RPMI-8226) was 13.8 µM (inactive), the GI50 (RXF 393) was 20.6 µM (inactive) and the GI50 (SF-268) was 36.1 µM (inactive). For the same compound, the GI50 (SF-295) was 25.2 µM (inactive), the GI50 (SF-539) was 24.8 µM (inactive) and the GI50 (SK-MEL-28) was > 62.2 µM (inactive). For the same compound, the GI50 (SK-MEL-2) was 26 µM (inactive), the GI50 (SK-MEL-5) was 23 µM (inactive) and the GI50 (SK-OV-3) was 38.8 µM (inactive). The GI50 (SN12C) was 31.6 µM (inactive), the GI50 (SNB-19) was > 54.8 µM (inactive) and the GI50 (SNB-75) was 18.5 µM (inactive). For the same compound, the GI50 (SR) was 16.1 µM (inactive), the GI50 (SW-620) was 45.2 µM (inactive) and the GI50 (T47D) was 34.3 µM (inactive). The GI50 (TK-10) was > 58.6 µM (inactive), the GI50 (U-251) was 32.2 µM (inactive) and the GI50 (UACC-257) was > 100 µM (inactive). For the same compound, the GI50 (UACC-62) was 29.7 µM (inactive) and the GI50 (UO-31) was 21.7 µM (inactive).

In the case of `CCOC(=O)NC(=O)c1cn(CCSCCOC(=O)NCCCCCCNC(=O)OCCSCCn2cc(C(=O)NC(=O)OCC)c(=O)[nH]c2=O)c(=O)[nH]c1=O`, the GI50 (A549) is reported as > 100 µM (inactive), the GI50 (ACHN) is reported as > 100 µM (inactive) and the GI50 (CAKI-1) is reported as > 100 µM (inactive). For the same compound, the GI50 (CCRF-CEM) was > 100 µM (inactive), the GI50 (COLO 205) was > 100 µM (inactive) and the GI50 (DLD-1) was > 100 µM (inactive). For the same compound, the GI50 (DMS-114) was > 100 µM (inactive), the GI50 (DMS-273) was > 100 µM (inactive) and the GI50 (EKVX) was > 100 µM (inactive). The GI50 (HCT-116) was > 100 µM (inactive), the GI50 (HCT-15) was greater than 100 µM and the GI50 (HL-60) was > 100 µM (inactive). For the same compound, the GI50 (HOP-18) was > 100 µM (inactive), the GI50 (HOP-62) was > 100 µM (inactive) and the GI50 (HOP-92) was > 100 µM (inactive). The GI50 (HT-29) was > 100 µM (inactive), the GI50 (IGROV-1) was > 100 µM (inactive) and the GI50 (K562) was > 100 µM (inactive). The GI50 (KM-20L2) was > 100 µM (inactive), the GI50 (LOX IMVI) was > 100 µM (inactive) and the GI50 (M14) was > 100 µM (inactive). The GI50 (M19-MEL) was > 100 µM (inactive), the GI50 (Malme-3M) was > 100 µM (inactive) and the GI50 (NCI-H23) was > 100 µM (inactive). For the same compound, the GI50 (NCI-H460) was > 100 µM (inactive), the GI50 (OVCAR-3) was > 100 µM (inactive) and the GI50 (OVCAR-4) was > 100 µM (inactive). The GI50 (OVCAR-8) was > 100 µM (inactive), the GI50 (RXF 393) was > 100 µM (inactive) and the GI50 (SF-295) was > 100 µM (inactive). The GI50 (SF-539) was > 100 µM (inactive), the GI50 (SK-MEL-28) was > 100 µM (inactive) and the GI50 (SK-MEL-5) was > 100 µM (inactive). For the same compound, the GI50 (SK-OV-3) was > 100 µM (inactive), the GI50 (SN12C) was > 100 µM (inactive) and the GI50 (SNB-19) was > 100 µM (inactive). The GI50 (SNB-75) was > 100 µM (inactive), the GI50 (SNB-78) was > 100 µM (inactive) and the GI50 (SW-620) was > 100 µM (inactive). The GI50 (TK-10) was > 100 µM (inactive), the GI50 (U-251) was > 100 µM (inactive) and the GI50 (UACC-257) was > 100 µM (inactive). The GI50 (UACC-62) was > 100 µM (inactive) and the GI50 (UO-31) was > 100 µM (inactive).

For `Cc1ccc(NC(c2ccccc2)P(=O)(c2ccccc2)c2ccccc2)cc1` (configuration not stated), the GI50 (786-0) was 95.1 µM (inactive), the GI50 (A498) was > 100 µM (inactive) and the GI50 (A549) was > 100 µM (inactive). For the same compound, the GI50 (ACHN) was 63.7 µM (inactive), the GI50 (BT-549) was > 100 µM (inactive) and the GI50 (CAKI-1) was > 100 µM (inactive). The GI50 (CCRF-CEM) was > 10 µM (inactive), the GI50 (COLO 205) was > 100 µM (inactive) and the GI50 (DU-145) was > 100 µM (inactive). For the same compound, the GI50 (EKVX) was > 100 µM (inactive), the GI50 (HCC 2998) was > 100 µM (inactive) and the GI50 (HCT-116) was > 100 µM (inactive). The GI50 (HCT-15) was greater than 100 µM, the GI50 (HL-60) was 34 µM (inactive) and the GI50 (HOP-62) was 95.5 µM (inactive). For the same compound, the GI50 (HOP-92) was 27.2 µM (inactive), the GI50 (HT-29) was > 100 µM (inactive) and the GI50 (Hs-578T) was 44.7 µM (inactive). For the same compound, the GI50 (IGROV-1) was > 100 µM (inactive), the GI50 (K562) was 34.4 µM (inactive) and the GI50 (KM12) was > 100 µM (inactive). For the same compound, the GI50 (LOX IMVI) was > 100 µM (inactive), the GI50 (M14) was > 100 µM (inactive) and the GI50 (MCF7) was > 100 µM (inactive). The GI50 (MDA-MB-231) was > 100 µM (inactive), the GI50 (MDA-MB-435) was > 100 µM (inactive) and the GI50 (MDA-N) was > 100 µM (inactive). For the same compound, the GI50 (MOLT-4) was > 100 µM (inactive), the GI50 (Malme-3M) was > 100 µM (inactive) and the GI50 (NCI-H226) was > 100 µM (inactive). For the same compound, the GI50 (NCI-H23) was > 100 µM (inactive), the GI50 (NCI-H460) was > 100 µM (inactive) and the GI50 (NCI-H522) was > 100 µM (inactive). The GI50 (NCI/ADR-RES) was > 100 µM (inactive), the GI50 (OVCAR-3) was > 100 µM (inactive) and the GI50 (OVCAR-4) was > 100 µM (inactive). The GI50 (OVCAR-5) was > 100 µM (inactive), the GI50 (OVCAR-8) was > 100 µM (inactive) and the GI50 (PC-3) was > 100 µM (inactive). For the same compound, the GI50 (RPMI-8226) was > 100 µM (inactive), the GI50 (RXF 393) was 47.1 µM (inactive) and the GI50 (SF-268) was 71.3 µM (inactive). For the same compound, the GI50 (SF-295) was 29.9 µM (inactive), the GI50 (SF-539) was > 100 µM (inactive) and the GI50 (SK-MEL-28) was > 100 µM (inactive). For the same compound, the GI50 (SK-MEL-2) was 39.6 µM (inactive), the GI50 (SK-MEL-5) was > 100 µM (inactive) and the GI50 (SK-OV-3) was > 100 µM (inactive). For the same compound, the GI50 (SN12C) was > 100 µM (inactive), the GI50 (SNB-19) was 53.7 µM (inactive) and the GI50 (SNB-75) was 13.7 µM (inactive). The GI50 (SR) was 60.3 µM (inactive), the GI50 (SW-620) was > 100 µM (inactive) and the GI50 (T47D) was > 100 µM (inactive). For the same compound, the GI50 (TK-10) was > 100 µM (inactive), the GI50 (U-251) was > 100 µM (inactive) and the GI50 (UACC-257) was > 100 µM (inactive). The GI50 (UACC-62) was > 100 µM (inactive) and the GI50 (UO-31) was > 100 µM (inactive).
